Reference: patent US7098199B2 (Sterix Limited, priority 1991, dated 2006)
Like-named read-outs stand apart in the source and are kept apart here.

Assays:
oestrone sulphatase [1] = target: T1, oestrone sulphatase (Homo sapiens, UniProt P08842); assay: Oestrone sulphatase inhibition in placental microsomes by flavanoid sulphamates; assay type: biochemical
T1 sequence (P08842 22-583): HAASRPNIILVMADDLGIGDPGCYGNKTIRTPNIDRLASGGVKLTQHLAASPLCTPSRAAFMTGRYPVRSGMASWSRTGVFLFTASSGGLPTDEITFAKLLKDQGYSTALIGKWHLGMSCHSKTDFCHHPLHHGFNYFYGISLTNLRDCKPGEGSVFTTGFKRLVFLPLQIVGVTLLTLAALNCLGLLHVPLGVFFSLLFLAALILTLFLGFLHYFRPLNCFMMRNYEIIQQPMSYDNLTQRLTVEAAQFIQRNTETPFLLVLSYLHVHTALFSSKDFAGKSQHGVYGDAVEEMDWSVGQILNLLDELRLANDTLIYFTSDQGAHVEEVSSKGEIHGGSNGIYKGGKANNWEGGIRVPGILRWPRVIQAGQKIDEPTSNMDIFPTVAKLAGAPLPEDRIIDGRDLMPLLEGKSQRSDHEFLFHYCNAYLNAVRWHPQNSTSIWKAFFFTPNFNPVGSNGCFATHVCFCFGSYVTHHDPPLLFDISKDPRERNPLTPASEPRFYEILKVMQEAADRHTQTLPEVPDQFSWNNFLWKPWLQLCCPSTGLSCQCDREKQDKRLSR

oestrone sulphatase [2] = target: T1, oestrone sulphatase
[3] = concentration tested 50 mM (so in the source)
[4] = concentration tested 10 mM (so in the source)
[5] = concentration tested 100 mM (so in the source)
[6] = concentration tested 1 mM (so in the source)
[7] = concentration tested 25 mM (so in the source)

Row | Compound | % INHIBITION Sulphatase (oestrone sulphatase [1]; 1 μM) [%] | % INHIBITION Sulphatase (oestrone sulphatase [1]; 10 μM) [%] | % Inhibition (Mean) Placental Microsomes (oestrone sulphatase [2]; [3]) [%] | % Inhibition (Mean) Placental Microsomes (oestrone sulphatase [2]; [4]) [%] | % Inhibition (Mean) Placental Microsomes (oestrone sulphatase [2]; [5]) [%] | % Inhibition (Mean) Placental Microsomes (oestrone sulphatase [2]; [6]) [%] | % Inhibition (Mean) Placental Microsomes (oestrone sulphatase [2]; [7]) [%] | further results
1 | NS(=O)(=O)Oc1ccc(C2CC(=O)c3c(O)cc(O)cc3O2)cc1 (stereo not drawn) [5,7-dihydroxy flavanone 4′-sulphamate, 5.7-Dihydroxyflavanone 4′-O-sulphamate] | 79.1 | 98.1 |  |  |  |  |  | % INHIBITION Sulphatase (oestrone sulphatase [1]; 0.1 μM): 30.4%; % INHIBITION Sulphatase (oestrone sulphatase [1]; 10 μM, listed as 5,7-dihydroxy flavanone-4′-sulphamate): 98%
2 | C[C@]12CC[C@@H]3c4cc([N+](=O)[O-])c(OS(N)(=O)=O)cc4CC[C@H]3[C@@H]1CCC2=O [2-nitro EMATE] |  |  | 99.4 |  |  |  |  | % Inhibition (Mean) Placental Microsomes (oestrone sulphatase [2]; concentration tested 0.05 mM (so in the source)): 44.5%; % Inhibition (Mean) Placental Microsomes (oestrone sulphatase [2]; concentration tested 0.5 mM (so in the source)): 93.9%; % Inhibition (Mean) Placental Microsomes (oestrone sulphatase [2]; concentration tested 5 mM (so in the source)): 99.0%
3 | flavone-6-sulphamate | 26.8 | 89.5 |  |  |  |  |  | 
4 | COc1cc2c(cc1OS(N)(=O)=O)CC[C@@H]1[C@@H]2CC[C@]2(C)C(=O)CC[C@@H]12 [2-methoxy EMATE] |  |  | 99.7 | 99.0 | 99.7 |  |  | 
5 | CCCc1c(OS(N)(=O)=O)ccc2c1CC[C@@H]1[C@@H]2CC[C@]2(C)C(=O)CC[C@@H]12 [4-n-propyl EMATE] |  |  | 16.3 | 10.2 | 23.7 | 13.7 | 15.7 | 
6 | flavone-7-sulphamate |  |  |  |  |  |  |  | % INHIBITION Sulphatase (oestrone sulphatase [1]; 50 μM): 56.3%; % INHIBITION Sulphatase (oestrone sulphatase [1]; 100 μM): 75.3%
7 | C=CCc1c(OS(N)(=O)=O)ccc2c1CC[C@@H]1[C@@H]2CC[C@]2(C)C(=O)CC[C@@H]12 [4-allyl EMATE] |  |  | 65.1 | 54.2 | 71.9 | 29.1 | 59.0 | 
8 | 5-hydroxy-flavone-7-sulphamate [5-hydroxy flavone-7-sulphamate] | 8 | 21 |  |  |  |  |  | 
9 | COc1ccc(-c2coc3cc(OS(N)(=O)=O)cc(O)c3c2=O)cc1 [5-Hydroxy-4′-methoxyisoflavone 7-O-sulphamate] | 1 | 50.6 |  |  |  |  |  | 
10 | CCCc1cc2c(cc1OS(N)(=O)=O)CC[C@@H]1[C@@H]2CC[C@]2(C)C(=O)CC[C@@H]12 [2-n-propyl EMATE] |  |  | 61.1 | 43.2 | 69.2 | 21.9 | 47.5 | 
11 | C=CCc1cc2c(cc1OS(N)(=O)=O)CC[C@@H]1[C@@H]2CC[C@]2(C)C(=O)CC[C@@H]12 [2-allyl EMATE] |  |  | 86.6 | 65.4 | 89.6 | 45.6 | 75.3 | 
